Results reported in publication PMC4527243, “Role of electrostatic interactions for ligand recognition and specificity of peptide transporters” (BMC Biology, 2015).
Where a SMILES comes first, the peptide text is derived from it.

T1: YePEPT (Yersinia enterocolitica, UniProt A0A2R9TD79)
T1 construct: gene YEP4_02370; full-length gene in pZUDF21-rbs-3C-10His, C-terminal HRV3C site and deca-His tag, expressed in E. coli BL21(DE3) pLysS; uptake in whole cells
T1 sequence (A0A2R9TD79 1-511): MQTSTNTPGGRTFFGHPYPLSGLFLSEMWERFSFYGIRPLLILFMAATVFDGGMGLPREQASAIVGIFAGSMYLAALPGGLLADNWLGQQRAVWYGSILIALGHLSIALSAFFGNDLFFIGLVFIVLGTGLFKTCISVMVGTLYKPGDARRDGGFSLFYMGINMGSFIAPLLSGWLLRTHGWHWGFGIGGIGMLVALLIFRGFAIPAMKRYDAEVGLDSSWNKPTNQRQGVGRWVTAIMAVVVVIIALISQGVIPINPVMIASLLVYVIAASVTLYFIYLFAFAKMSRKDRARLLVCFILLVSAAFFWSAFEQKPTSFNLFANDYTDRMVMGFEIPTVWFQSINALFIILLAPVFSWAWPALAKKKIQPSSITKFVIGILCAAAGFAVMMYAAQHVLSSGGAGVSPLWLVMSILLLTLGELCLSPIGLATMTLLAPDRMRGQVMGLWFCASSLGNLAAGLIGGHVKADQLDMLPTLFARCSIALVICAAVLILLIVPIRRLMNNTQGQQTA


Legend:
YePEPT [1] = target: T1, YePEPT; assay: competition of [3H]Ala-Ala uptake in E. coli cells; assay type: cell-based, Escherichia coli
YePEPT [2] = target: T1, YePEPT; assay: competition of [3H]Ala-Ala uptake in E. coli cells; assay type: cell-based; details: 50 μM [3H]Ala-Ala, 2.5 mM competitor, pH 7.5, room temperature
[3] = substrate: C[C@H](N)C(=O)N[C@@H](C)C(=O)O; assay: [3H]Ala-Ala uptake saturation in E. coli cells; assay type: cell-based, Yersinia enterocolitica; details: labelled compound, pH 7.5, 150 mM NaCl, room temperature, 100 s

Molecule	Ki (YePEPT [1])	also measured
C[C@H](NC(=O)[C@@H](N)CC(=O)O)C(=O)O [Asp-Ala] (H-Asp-Ala-OH)	~80 µM	–
C[C@H](NC(=O)[C@@H](N)CCC(=O)O)C(=O)O [Glu-Ala] (H-Glu-Ala-OH)	~50 µM	–
C[C@H](NC(=O)[C@@H](N)Cc1ccc(O)cc1)C(=O)O [Tyr-Ala]	–	competition of [3H]Ala-Ala uptake in E. coli cells (YePEPT [2]): YePEPT also displayed specificity for Ala-Tyr and Tyr-Ala at comparable levels
YePEPT (Yersinia enterocolitica subsp. palearctica YE-P4) (protein, full-length gene in pZUDF21-rbs-3C-10His, C-terminal HRV3C site and deca-His tag, expressed in E. coli BL21(DE3) pLysS; uptake in whole cells) MQTSTNTPGGRTFFGHPYPLSGLFLSEMWERFSFYGIRPLLILFMAATVFDGGMGLPREQASAIVGIFAGSMYLAALPGGLLADNWLGQQRAVWYGSILIALGHLSIALSAFFGNDLFFIGLVFIVLGTGLFKTCISVMVGTLYKPGDARRDGGFSLFYMGINMGSFIAPLLSGWLLRTHGWHWGFGIGGIGMLVALLIFRGFAIPAMKRYDAEVGLDSSWNKPTNQRQGVGRWVTAIMAVVVVIIALISQGVIPINPVMIASLLVYVIAASVTLYFIYLFAFAKMSRKDRARLLVCFILLVSAAFFWSAFEQKPTSFNLFANDYTDRMVMGFEIPTVWFQSINALFIILLAPVFSWAWPALAKKKIQPSSITKFVIGILCAAAGFAVMMYAAQHVLSSGGAGVSPLWLVMSILLLTLGELCLSPIGLATMTLLAPDRMRGQVMGLWFCASSLGNLAAGLIGGHVKADQLDMLPTLFARCSIALVICAAVLILLIVPIRRLMNNTQGQQTA	–	Km [3]: 200 µM
